Experimental data published in EP4360643A1, “SOCS1 DERIVED PEPTIDES FOR USE IN THE TREATMENT OF LIVER DISEASES” (Fundacion Instituto De Investigacion Sanitaria Fundacion …, priority 2022, dated 2024).
Bridges are numbered along the chain shown (N, C = ends). Where no end group is shown, it is not given here. [ ]: non-standard residue; d: D form. The star is where a group is joined. 1Nal = N[C@@H](Cc1cccc2ccccc12)C(=O)O; Acm = CC(=O)NC*

How the values were obtained:
BKS db/db mice = experiment: T2D-induced liver damage in BKS db/db mice (leptin receptor deficiency); format: in vivo; settings: Losartan alone, 25 µg/g in drinking water, 7 weeks
Description: Leptin receptor deficiency in diabetes-susceptible strain BKS db/db: Homozygous C57BLKS (BKS) inbred db/db mice (16-weeks old males; Envigo) were randomized to receive in drinking water an angiotensin receptor blocker (Losartan 25 µg/g body weight) or vehicle as tap water (n=25). In addition, two groups of 8 losartan-treated mice were randomized to receive S1 peptide (10 µg/g body weight) or JAK1/2 inhibitor (Baricitinib 3 µg/g body weight) via intraperitoneal injection 3 days per week for 7 weeks. All groups were monitored during 7 weeks of treatment. Heterozygous littermates (db/m; n=10) were used as non-diabetic, non-obese control group.
Mice were housed in ventilated cages (2-4 mice per cage) with usual bedding material and environmental enrichment in a conventional temperature-controlled room (20-22°C) with 12 h light/dark cycle and free access to water and food. Blood glucose (glucometer; NovaPro, Menarini Diagnostics) and body weight levels were monitored once weekly during the follow-up period. […]
At the end of the studies, serum levels of glucose, triglycerides (TG), total cholesterol, high-density lipoprotein cholesterol (HDL), low-density lipoprotein cholesterol (LDL), alanine aminotransferase (ALT or GPT), aspartate aminotransferase (AST), alkaline phosphatase (ALP) and albumin were determined by automated procedures (Roche Cobas autoanalyzer). […]

[1] = system: ApoE-/- mice fed with HFD; experiment: NAFLD induced by high-fat diet (HFD) in ApoE-/- mice; format: in vivo; settings: 8 weeks of treatment
Description: In the second model, apolipoprotein E deficient mice (ApoE-/-, males, 10-12 weeks old) were administered high-fat diet (HFD, TD.88137, Envigo) for 8 weeks and treated with vehicle (n=8) or SOCS1-derived peptides (S1, n=6; liPS5, n=6; cPS5, n=6; cPS5Nal, n=6) at the dose of 4µg/g (in 200 µL) via intraperitoneal injection 3 days per week. A group of ApoE-/- mice under standard diet (Chow, n=6) was included as control.
Mice were housed in ventilated cages (2-4 mice per cage) with usual bedding material and environmental enrichment in a conventional temperature-controlled room (20-22°C) with 12 h light/dark cycle and free access to water and food. Blood glucose (glucometer; NovaPro, Menarini Diagnostics) and body weight levels were monitored once weekly during the follow-up period. At the end of the intervention studies, mice were anaesthetized (ketamine 100 mg/kg and xylazine 10 mg/kg) and euthanized, and blood and tissue samples were collected.
Hepatic lipids were extracted as previously described. Commercial colorimetric kits were used to measure concentrations of total cholesterol (STA-384, Cell Biolabs) and TG (11528, Biosystems), and values were normalized by tissue weight and mg of protein (BCA assay), respectively.
At the time of harvest, liver samples were fixed in 10% buffered formalin, processed for paraffin-embedding and cut (3-4 µm) or embedded in OCT compound and cryosectioned into 7 µm slices. Deparaffinized sections were stained with hematoxylin/eosin and Masson's trichrome to evaluate the histological NAFLD activity score (NAS) considering steatosis, lobular inflammation, ballooning and fibrosis, as previously described or were stained with picrosirious red to assess collagen deposition and fibrotic areas. Periodic Acid Schiff staining was performed for glycogen deposition assessment. Cryosections were stained with Oil red O/ hematoxylin to detect lipid accumulation.
For immunohistochemistry, liver sections were deparaffinized and […] through graded xylene and ethanol. After antigen retrieval (0.01 M citrate buffer pH 6 for 20 min) and blockade of endogenous peroxidase (3% H2O2 in methanol for 30 min) and nonspecific binding (8% host serum for 30 min), slides were incubated overnight at 4°C with primary antibodies against phosphorylated STAT1 (P-STAT1, Tyr701; Thermo Fisher Scientific Cat# 44-376G, RRID:AB_2533642), P-STAT3 (Ser727, Cell Signalling Technology Cat# 9134, RRID:AB_331589), P-nuclear factor erythroid 2-related factor 2 (NRF2, Ser40; Abcam Cat# ab76026, RRID:AB_1524049) and F4/80 monocytes/macrophages (Bio-Rad Cat# MCA497R, RRID:AB_323279). After rinsing in PBS, samples were incubated with respective secondary antibodies conjugated with either horseradish peroxidase or biotin (followed by avidin-biotin complex reagent). Immunoreactive cells were then visualized by the addition of peroxidase substrates (3, 3-diaminobenzidine or 3-amino-9-ethylcarbazole; DAKO) and counterstained with hematoxylin.
All the histological evaluations were conducted in a blinded fashion. Positive staining was quantified in at least 2 sections per mice using Image-Pro Plus software (Media Cybernetics) and expressed as percentage or number of positive cells per area.
(§1) Total RNA from mouse liver and hepatocytes was extracted using TRI Reagent (Molecular Research Center). Complementary DNA was produced via reverse transcription using High Capacity cDNA Reverse Transcription Kit (Applied Biosystems). The gene expression of mouse genes was determined in duplicate by quantitative real-time PCR using predesigned TaqMan gene expression assays (Applied Biosystems) or Premix ExTaq (Takara). The results for each sample were normalized to the 18S rRNA housekeeping expression, and data expressed as fold increases versus chow diet (in vivo studies) or basal conditions (in vitro studies).

[2] = system: mouse hepatocyte cell line; experiment: In vitro NAFLD model: hepatocytes exposed to palmitic acid (Oil red O staining, real-time PCR); format: cell-based; settings: induced by palmitic acid 400 µM, 6 hours
Description: Immortalized mouse hepatocyte cell line (kindly provided by Dr. Valverde, IIBm Alberto Sols, Madrid) were cultured in Dulbecco's Modified Eagle Medium (DMEM; D6546, Sigma-Aldrich) containing 10% FBS, 100 U/mL penicillin, 100 µg/mL streptomycin and 2 mM L-glutamine (Sigma-Aldrich) and used between 2nd-8th passages. Cells were incubated for 24 hours in medium with 0.5% FBS, pre-treated for 90 min with optimal doses of peptides (59 µM S1 and 25 µM liPS5) and then stimulated for additional 2-16 h with palmitic acid (P-0500, Sigma-Aldrich; stock solution diluted in fatty acid-free BSA to 5 mM) at a final concentration of 400 µM. Cell viability was confirmed by the 3-(4,5-dimethylthiazol-2-yl)-2,5-diphenyltetrazolium bromide tetrazolium (MTT) assay. Lipid accumulation in hepatocytes was determined by Oil red O staining.
as §1

[3] = 4µg/g intraperitoneal 3 days per week, vs vehicle

CCCCc1nc(Cl)c(CO)n1Cc1ccc(-c2ccccc2-c2nn[nH]n2)cc1 [Losartan]
hepatoprotective effect (BKS db/db mice): did not produce an hepatoprotective effect

DTC(Acm)RQT(Nal1)RKH (lactam bridge D1-K9) (DTC(Acm)RQT[1Nal]RKH; lactam 1-9) [cPS5Nal, cyclic PS5 with additional non-natural residue 1-naphthylalanine]
gene expression of CCL5 in mouse liver [1]: effectively prevented
gene expression of CCl2 in mouse liver [1]: effectively prevented
gene expression of CXCL10 in mouse liver [1]: effectively prevented
gene expression of IL-6 in mouse liver [1]: effectively prevented
gene expression of TNFα in mouse liver [1]: effectively prevented
gene expression of scavenger receptor CD36 in mouse liver [1]: effectively prevented
ballooning (liver sections) [1, 3]: marked decrease
hepatic steatosis (liver sections, hematoxylin/eosin, Oil red O) [1, 3]: marked decrease
inflammation (liver sections, F4/80) [1, 3]: marked decrease
expression of inflammatory gene CCL2 (real-time PCR) [2]: downregulated
expression of inflammatory gene IL-6 (real-time PCR) [2]: downregulated
expression of scavenger receptor CD36 (real-time PCR) [2]: downregulated
